Source: publication PMC8081377 (Mutagenesis, 2021)
Structures can show the parent of a compound that is named as a salt. Where two headings read alike, the source gives them in different places.

Columns and labels:
[1] = tested on: EpiDerm™ EPI-200-MNA skin tissues
[2] = tested on: EpiDerm™ EPI-200-MNA skin tissues; remark: listed apart in the source
[3] = % VCC or % BN, lab(s) as stated in the text
[4] = two treatments, vs solvent control
[5] = lack of excessive cytotoxicity, 48-h protocol
[6] = three treatments, vs solvent control

## CCCOC(=O)c1cc(O)c(O)c(O)c1 [Propyl gallate]
[1]
  % MN-BN response in individual experiment(s), Lab B, 48-h protocol: did not significantly increase
  classification in the RSMN assay by Lab B: negative
[2]; [3]
  top/maximum dose tested, limited by excessive or strong cytotoxicity: 48 µg/cm^2

## O=C1CN(/N=C/c2ccc([N+](=O)[O-])o2)C(=O)N1 [Nitrofurantoin]
[1]
  classification in the RSMN assay by Lab B: negative
[2]; human
  maximum dose tested without exceeding the cytotoxicity thresholds: 1600 µg/cm^2
  top/maximum dose tested, limited by excessive or strong cytotoxicity: 48 µg/cm^2

## CC1(C)S[C@@H]2[C@H](NC(=O)[C@H](N)c3ccccc3)C(=O)N2[C@H]1C(=O)O [Ampicillin sodium salt]
[1]; overall call
  classification in the RSMN assay by Lab A: negative
[1]; [4]
  % MN-BN response in individual experiment(s), Lab A, 48-h protocol: no significant increases
[2]; [5]
  maximum dose tested without exceeding the cytotoxicity thresholds: 1600 µg/cm^2

## CCCCNC(=O)NS(=O)(=O)c1ccc(C)cc1 [Tolbutamide]
[1]; early Phase 2a only
  classification in the RSMN assay by Lab A: positive
[1]; later Phase 2a testing only, expected outcome negative
  classification in the RSMN assay by Lab A: correctly classified
[1]; overall call
  classification in the RSMN assay by Lab B: negative
  classification in the RSMN assay by Lab C: negative
[1]; [4]
  % MN-BN response in individual experiment(s), Lab C, 48-h protocol: negative results

## COc1cc2c(c(OC)c1OC)-c1ccc(OC)c(=O)cc1[C@@H](NC(C)=O)CC2 [Colchicine]
[1]; overall call
  classification in the RSMN assay by Lab A: positive
  classification in the RSMN assay by Lab C: positive
[1]; [4]
  % MN-BN response in individual experiment(s), Lab A, 48-h protocol: highly significant increases
  % MN-BN response in individual experiment(s), Lab C, 48-h protocol: highly significant increases
[2]; [3]
  top/maximum dose tested, limited by excessive or strong cytotoxicity: 0.03 µg/cm^2

## OCC(Br)CBr (stereo not shown) [2,3-Dibromo-1-propanol]
[1]; overall call
  classification in the RSMN assay by Lab A: positive
[2]; [3]
  top/maximum dose tested, limited by excessive or strong cytotoxicity: 500–600 µg/cm^2

## COc1cc([C@@H]2c3cc4c(cc3[C@@H](O[C@@H]3O[C@@H]5CO[C@@H](C)O[C@H]5[C@H](O)[C@H]3O)[C@H]3COC(=O)[C@H]23)OCO4)cc(OC)c1O [Etoposide]
[2]; [3]
  top/maximum dose tested, limited by excessive or strong cytotoxicity: 1.6 µg/cm^2

## CCCCCl [N-Butyl chloride]
[1]
  % MN-BN response in individual experiment(s), Lab A, 72-h protocol: negative results
  % MN-BN response in individual experiment(s), Lab B, 48-h protocol: no significant increases
  % MN-BN response in individual experiment(s), Lab C, 48-h protocol: no significant increase
  % MN-BN response in individual experiment(s), Lab C, 72-h protocol: no significant increase
  % MN-BN response in individual experiment(s), Lab D, 48-h protocol: no significant increases
  classification in the RSMN assay by Lab A: negative
  classification in the RSMN assay by Lab B: negative
  classification in the RSMN assay by Lab C: negative
  classification in the RSMN assay by Lab D: negative

## CC(=O)O[C@H]1C(=O)[C@@]2(C)[C@H]([C@H](OC(=O)c3ccccc3)[C@]3(O)C[C@H](OC(=O)[C@H](O)[C@@H](NC(=O)c4ccccc4)c4ccccc4)C(C)=C1C3(C)C)[C@]1(OC(C)=O)CO[C@@H]1C[C@@H]2O [Taxol]
[1]; overall call
  classification in the RSMN assay by Lab C: positive
[1]; [4]
  % MN-BN response in individual experiment(s), Lab C, 48-h protocol: clear and dose-dependent increase
[2]; [3]
  top/maximum dose tested, limited by excessive or strong cytotoxicity: 1.6 µg/cm^2

## O=[N+]([O-])c1cccc2ccccc12 [1-Nitronaphthalene]
[1]
  classification in the RSMN assay by Lab A: negative
[2]; [3]
  top/maximum dose tested, limited by excessive or strong cytotoxicity: 50–80 µg/cm^2

## CCC(=O)OCC(=O)[C@@]1(OC(=O)CC)[C@@H](C)C[C@H]2[C@@H]3CCC4=CC(=O)C=C[C@]4(C)[C@@]3(Cl)[C@@H](O)C[C@@]21C [Beclomethasone dipropionate]
[1]; overall call
  classification in the RSMN assay by Lab B: negative
[1]; [4]
  % MN-BN response in individual experiment(s), Lab B, 48-h protocol: no significant increases
[2]; [5]
  maximum dose tested without exceeding the cytotoxicity thresholds: 1600 µg/cm^2

## Cc1c(N)cccc1N [2,6-Diaminotoluene (2,6-DAT), 2,6-Diaminotoluene]
[1]
  classification in the RSMN assay by Lab D: negative
[2]; [3]
  top/maximum dose tested, limited by excessive or strong cytotoxicity: 350 µg/cm^2

## c1ccc2c(c1)ccc1ccccc12 [Phenanthrene]
[1]
  % MN-BN response in individual experiment(s), Lab B, 48-h protocol: negative
  % MN-BN response in individual experiment(s), Lab B, 72-h protocol: no evidence for an increase
  % MN-BN response in individual experiment(s), Lab C, 48-h protocol: negative
  % MN-BN response in individual experiment(s), Lab D, 48-h protocol: negative
  classification in the RSMN assay by Lab A: positive
  classification in the RSMN assay by Lab B: negative
  classification in the RSMN assay by Lab C: negative
  classification in the RSMN assay by Lab D: negative
[2]; lab(s) as stated in the text
  top dose, limited by precipitation on the surface of the skin tissues: 200–400 µg/cm^2
[2]; second 48-h experiment, Lab A
  doses at which precipitation was seen: ≥ 400 µg/cm^2

## Oc1ccc(Cl)cc1Cl [2,4-Dichlorophenol]
[1]; overall call
  classification in the RSMN assay by Lab A: negative
  classification in the RSMN assay by Lab D: negative
[1]; [4]
  % MN-BN response in individual experiment(s), Lab A, 48-h protocol: no statistically significant increases
  % MN-BN response in individual experiment(s), Lab D, 48-h protocol: negative
[2]; [3]
  top/maximum dose tested, limited by excessive or strong cytotoxicity: 50 µg/cm^2

## O=[N+]([O-])c1ccc(O)cc1 [4-Nitrophenol]
[1]; overall call
  classification in the RSMN assay by Lab A: negative
  classification in the RSMN assay by Lab B: negative
  classification in the RSMN assay by Lab C: negative
  classification in the RSMN assay by Lab D: negative
[1]; [6]
  % MN-BN response in individual experiment(s), Lab A, 72-h protocol: negative
  % MN-BN response in individual experiment(s), Lab C, 72-h protocol: negative
[1]; [4]
  % MN-BN response in individual experiment(s), Lab A, 48-h protocol: negative
  % MN-BN response in individual experiment(s), Lab B, 48-h protocol: did not find any evidence for an increase
  % MN-BN response in individual experiment(s), Lab C, 48-h protocol: negative
  % MN-BN response in individual experiment(s), Lab D, 48-h protocol: did not find any evidence for an increase
[2]; [3]
  top/maximum dose tested, limited by excessive or strong cytotoxicity: 20–48 µg/cm^2

## CCc1cc(C(N)=S)ccn1 [Ethionamide]
[1]
  % MN-BN response in individual experiment(s), Lab A, 48-h protocol: negative
  % MN-BN response in individual experiment(s), Lab B, 48-h protocol: negative
  % MN-BN response in individual experiment(s), Lab B, 72-h protocol: negative
  % MN-BN response in individual experiment(s), Lab C, 48-h protocol: negative
  classification in the RSMN assay by Lab A: negative
  classification in the RSMN assay by Lab B: negative
  classification in the RSMN assay by Lab C: negative
[2]; human
  % VCC or BN (cytotoxicity thresholds exceeded): < 40 % VCC or BN
  top/maximum dose tested, limited by excessive or strong cytotoxicity: 30–160 µg/cm^2

## COC(=O)C1=C(C)NC(C)=C(C(=O)OC)C1c1ccccc1[N+](=O)[O-] [Nifedipine]
[1]; overall call
  classification in the RSMN assay by Lab A: negative

## Cc1ccc(N)cc1N [2,4-Diaminotoluene (2,4-DAT), 2,4-Diaminotoluene]
[1]; overall call
  classification in the RSMN assay by Lab A: positive
  classification in the RSMN assay by Lab B: negative
  classification in the RSMN assay by Lab D: negative
[1]; [6]
  % MN-BN response in individual experiment(s), Lab B, 72-h protocol: negative
[1]; [4]
  % MN-BN response in individual experiment(s), Lab B, 48-h protocol: none of which caused a significant increase
  % MN-BN response in individual experiment(s), Lab D, 48-h protocol: negative
[2]; [3]
  top/maximum dose tested, limited by excessive or strong cytotoxicity: 700 µg/cm^2

## Oc1ccccc1 [Phenol]
[1]
  % MN-BN response in individual experiment(s), Lab D, 48-h protocol: significant increase in the % MN-BN was observed only at the highest dose tested
  classification in the RSMN assay by Lab D: negative

## Cc1cn([C@H]2C[C@H](N=[N+]=[N-])[C@@H](CO)O2)c(=O)[nH]c1=O [Azidothymidine (AZT), Azidothymidine]
[1]; overall call
  classification in the RSMN assay by Lab A: positive
[1]; [6]
  % MN-BN response in individual experiment(s), Lab A, 72-h protocol: significant increases
[1]; [4]
  % MN-BN response in individual experiment(s), Lab A, 48-h protocol: significant increase
[2]; human
  top/maximum dose tested, limited by excessive or strong cytotoxicity: 700 µg/cm^2

## Oc1cccc2cccnc12 [8-Hydroxyquinoline]
[1]
  classification in the RSMN assay by Lab D: negative
[2]; human
  top/maximum dose tested, limited by excessive or strong cytotoxicity: 48 µg/cm^2

## C1CC2OC2CC1C1CO1 (stereo not shown) [4-Vinyl-1-cyclohexene diepoxide]
[1]; overall call
  classification in the RSMN assay by Lab A: positive
  classification in the RSMN assay by Lab B: positive
  classification in the RSMN assay by Lab C: positive
[1]; [6]
  % MN-BN response in individual experiment(s), Lab C, 72-h protocol: equivocal response
[1]; [4]
  % MN-BN response in individual experiment(s), Lab B, 48-h protocol: significant increase
  % MN-BN response in individual experiment(s), Lab C, 48-h protocol: negative
  % MN-BN response in individual experiment(s), Lab D, 48-h protocol: negative
[2]; [3]
  top/maximum dose tested, limited by excessive or strong cytotoxicity: 64 µg/cm^2

## COS(C)(=O)=O [Methyl methanesulfonate (MMS), Methyl methanesulfonate]
[1]; overall call
  classification in the RSMN assay by Lab B: positive
[2]; [3]
  top/maximum dose tested, limited by excessive or strong cytotoxicity: 16 µg/cm^2

## O=C(O)Cc1ccccc1Nc1c(Cl)cccc1Cl [Diclofenac]
[1]; overall call
  classification in the RSMN assay by Lab A: positive
  classification in the RSMN assay by Lab B: positive
  classification in the RSMN assay by Lab D: positive
[1]; reported by Lab A
  apoptotic cells alongside the increase of micronuclei: strong increase of apoptotic cells
[1]; [4]
  % MN-BN response in individual experiment(s), Lab A, 48-h protocol: significant increases
[2]; [3]
  top/maximum dose tested, limited by excessive or strong cytotoxicity: 50–80 µg/cm^2

## OC[C@@H](O)[C@@H](O)[C@H](O)[C@H](O)CO [D-Mannitol]
[1]; overall call
  classification in the RSMN assay by Lab B: negative
  classification in the RSMN assay by Lab D: negative
[1]; [4]
  % MN-BN response in individual experiment(s), Lab B, 48-h protocol: no significant increase
  % MN-BN response in individual experiment(s), Lab D, 48-h protocol: no significant increase
[2]; [5]
  maximum dose tested without exceeding the cytotoxicity thresholds: 1600 µg/cm^2

## CCOS(C)(=O)=O [Ethyl methanesulfonate (EMS), Ethyl methanesulfonate]
[1]; overall call
  classification in the RSMN assay by Lab A: positive
  classification in the RSMN assay by Lab C: positive
[1]; [6]
  % MN-BN response in individual experiment(s), Lab A, 72-h protocol: significant increase in the % MN-BN at multiple doses
[1]; [4]
  % MN-BN response in individual experiment(s), Lab C, 48-h protocol: clear and dose-dependent increase
[2]; [3]
  top/maximum dose tested, limited by excessive or strong cytotoxicity: 360 µg/cm^2

## Oc1cccc(O)c1 [Resorcinol]
[1]
  % MN-BN response in individual experiment(s), Lab B, 48-h protocol: significant increase in % MN-BN at the highest dose tested
  % MN-BN response in individual experiment(s), Lab B, 72-h protocol: did not induce any statistically significant increase
  classification in the RSMN assay by Lab B: negative

## O=c1[nH]cc(F)c(=O)[nH]1 [5-Fluorouracil]
[1]
  % MN-BN response in individual experiment(s), Lab B, 48-h protocol: negative results
  % MN-BN response in individual experiment(s), Lab B, 72-h protocol: negative results
  classification in the RSMN assay by Lab A: positive
  classification in the RSMN assay by Lab B: negative

## COc1cc(/C=C/C(=O)CC(=O)/C=C/c2ccc(O)c(OC)c2)ccc1O [Curcumin]
[1]; overall call
  classification in the RSMN assay by Lab B: positive
[2]; [3]
  top/maximum dose tested, limited by excessive or strong cytotoxicity: 160 µg/cm^2
